Source: patent publication US20170027172A1, “USE OF SUBSTITUTE OXO TETRAHYDROQUINOLINE SULFONAMIDES OR SALTS THEREOF FOR RAISING STRESS TOLERANCE OF PLANTS” (BAYER CROPSCIENCE AKTIENGESELLSCHAFT, priority 2014, published 2017)

Each compound was assayed against T1, phosphatase ABI1 via the co-regulator RCAR11/PYR1 (Arabidopsis thaliana, UniProt O49686+P49597) (assay: In vitro inhibition of the phosphatase ABI1 via the co-regulator RCAR11/PYR1, MUP dephosphorylation). Settings: in a solution of DMSO and water; fluorescence at 460 nm.
T1 sequence (O49686 1-191): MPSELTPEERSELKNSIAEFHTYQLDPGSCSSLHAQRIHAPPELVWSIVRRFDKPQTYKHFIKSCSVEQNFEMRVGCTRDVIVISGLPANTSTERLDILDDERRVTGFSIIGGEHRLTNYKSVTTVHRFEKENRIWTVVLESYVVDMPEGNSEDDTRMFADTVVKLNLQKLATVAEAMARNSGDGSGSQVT
T1 sequence (P49597 1-434): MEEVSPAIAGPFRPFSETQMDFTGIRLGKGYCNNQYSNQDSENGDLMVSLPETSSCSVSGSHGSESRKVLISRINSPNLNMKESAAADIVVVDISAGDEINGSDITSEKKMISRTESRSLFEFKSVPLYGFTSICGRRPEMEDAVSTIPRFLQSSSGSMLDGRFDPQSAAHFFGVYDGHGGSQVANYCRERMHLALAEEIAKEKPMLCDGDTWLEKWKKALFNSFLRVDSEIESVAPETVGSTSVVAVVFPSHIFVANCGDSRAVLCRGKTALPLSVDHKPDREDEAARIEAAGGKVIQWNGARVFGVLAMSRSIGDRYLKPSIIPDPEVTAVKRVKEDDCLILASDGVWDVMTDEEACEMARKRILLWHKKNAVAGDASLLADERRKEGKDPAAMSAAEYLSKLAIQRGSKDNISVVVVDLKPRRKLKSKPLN
Format: biochemical
Parameters: dose or concentration left out as unconfirmed
Source text: Effects of the phytohormone abscisic acid (ABA) on the behavior of plants under abiotic stress and the mechanism of action of ABA are described in the literature (cf. Abrams et al., WO97/23441, Park et al. Science, 2009, 324, 1068; Grill et al. Science, 2009, 324, 1064; Tanokura et al. Biophysics, 2011, 7, 123; Schroeder et al. Plant J. 2010, 61, 290). Therefore, it is possible with the aid of a suitable in vitro test system to derive a correlation between the action of ABA and the stress response of a plant under abiotic stress. In the event of water deficiency (drought stress), plants form the phytohormone abscisic acid (ABA). This binds, along with a co-regulator (Regulatory Component of ABA-Receptor=RCAR according to Grill et al. Science, 2009, 324, 1064 or PYR/PYL according to Cutler et al. Science, 2009, 324, 1068), to a phosphatase (e.g. ABI1, a type 2C protein phosphatase, also abbreviated to PP2C) and inhibits its activity. As a result, a “downstream” kinase (e.g. SnRK2) is no longer dephosphorylated. This kinase, which is thus active, via phosphorylation of transcription factors (e.g. AREB/ABF, cf. Yoshida et al., 2010, 61, 672), switches on a genetic protection program to increase drought stress tolerance. The assay described hereinafter utilizes the inhibition of the phosphatase ABI1 via the co-regulator RCAR11/PYR1 aus Arabidopsis thaliana. For the determination of activity, the dephosphorylation of 4-methylumbelliferyl phosphate (MUP) was measured at 460 nm. The in vitro assay was conducted in Greiner 384-well PS microplates F-well, using two controls: a) 0.5% dimethyl sulfoxide (DMSO) and b) 5 μM abscisic acid (ABA). The assay described here was generally conducted with substance concentrations of the appropriate chemical test substances in a concentration range of 0.1 μM to 100 μM in a solution of DMSO and water. The substance solution thus obtained, if necessary, was stirred with esterase from porcine liver (EC 3.1.1.1) at room temperature for 3 h and centrifuged at 4000 rpm for 30 min. A total volume of 45 μl was introduced into each cavity of the microplate, having the following composition: • 1) 5 μl of substance solution, i.e. a) DMSO 5% or b) abscisic acid solution or c) the corresponding example compound of the general formula (I) dissolved in 5% DMSO. • 2) 20 μl of enzyme buffer mix, composed of a) 40% by vol. of enzyme buffer (10 mL contain equal proportions by volume of 500 mM Tris-HCl pH 8, 500 mM NaCl, 3.33 mM MnCl2, 40 mM dithiothreitol (DTT)), b) 4% by vol. of ABI1 dilution (protein stock solution was diluted so as to give, after addition, a final concentration in the assay of 0.15 μg ABI1/well), c) 4% by vol. of RCAR11 dilution (enzyme stock was diluted so as to give, on addition of the dilution to the enzyme buffer mix, a final concentration in the assay of 0.30 μg enzyme/well), d) 5% by vol. of Tween20 (1%), e) 47% by vol. H2O bi-dist. • 3) 20 μl of substrate mix, composed of a) 10% by vol. of 500 mM Tris-HCl pH8, b) 10% by vol. of 500 mM NaCl, c) 10% by vol. of 3.33 mM MnCl2, d) 5% by vol. of 25 mM MUP, 5% by vol. of Tween20 (1%), 60% by vol. of H2O bi-dist.
Enzyme buffer mix and substrate mix were made up 5 minutes prior to the addition and warmed to a temperature of 35° C. On completion of pipetting of all the solutions and on completion of mixing, the plate was incubated at 35° C. for 20 minutes. Finally, a relative fluorescence measurement was made at 35° C. with a BMG Labtech “POLARstar Optima” microplate reader using a 340/10 nm excitation filter and a 460 nm emission filter. The efficacy of the compounds of the general formula (I) is reported in the table which follows using abscisic acid […] as comparative substance (No. 37) according to the following classification: ++++ (inhibition≧90%), +++ (90%>inhibition≧70%), ++ (70%>inhibition≧50%), + (50%>inhibition≧30%). […]

SMILES	ABI1 inhibition
O=C1CCc2cc(NS(=O)(=O)Cc3ccc(C(F)(F)F)cc3)ccc2N1CC(F)(F)F [A2-178]	++++ (inhibition≧90%)
N#Cc1ccc(CS(=O)(=O)Nc2ccc3c(c2)CCC(=O)N3CC(F)F)cc1 [A1-181]	++++ (inhibition≧90%)
O=C1CCc2cc(NS(=O)(=O)Cc3cccc(Cl)c3)ccc2N1CC(F)F [A1-166]	++ (70%>inhibition≧50%)
O=C1CCc2cc(NS(=O)(=O)Cc3ccc(C(F)(F)F)cc3)ccc2N1CC(F)F [A1-178]	++++ (inhibition≧90%)
O=C1CCc2cc(NS(=O)(=O)Cc3cccc([N+](=O)[O-])c3)ccc2N1CC(F)(F)F [A2-176]	+++ (90%>inhibition≧70%)
Cc1ccc(CS(=O)(=O)Nc2ccc3c(c2)CCC(=O)N3CCC(F)(F)F)cc1 [A7-152]	++++ (inhibition≧90%)
O=C1CCc2cc(NS(=O)(=O)Cc3ccc([N+](=O)[O-])cc3)ccc2N1CC(F)F [A1-175]	+++ (90%>inhibition≧70%)
Cc1ccc(CS(=O)(=O)Nc2ccc3c(c2)CCC(=O)N3CC#N)cc1 [A16-152]	++ (70%>inhibition≧50%)
O=C1CCc2cc(NS(=O)(=O)Cc3ccc(Cl)cc3)ccc2N1CC(F)F [A1-165]	++++ (inhibition≧90%)
N#Cc1ccc(CS(=O)(=O)Nc2ccc3c(c2)CCC(=O)N3CC(F)(F)F)cc1 [A2-181]	++++ (inhibition≧90%)
O=C1CCc2cc(NS(=O)(=O)Cc3ccc(Cl)cc3)ccc2N1CCC(F)(F)F [A7-165]	++++ (inhibition≧90%)
CC1=CC(=O)CC(C)(C)[C@@]1(O)/C=C/C(C)=C\C(=O)O [abscisic acid, reference compound]	++++ (inhibition≧90%)
O=C1CCc2cc(NS(=O)(=O)Cc3cccc(C(F)(F)F)c3)ccc2N1CC(F)(F)F [A2-179]	+++ (90%>inhibition≧70%)
O=C1CCc2cc(NS(=O)(=O)Cc3ccccc3[N+](=O)[O-])ccc2N1CC(F)(F)F [A2-177]	+++ (90%>inhibition≧70%)
N#Cc1cccc(CS(=O)(=O)Nc2ccc3c(c2)CCC(=O)N3CCC(F)(F)F)c1 [A7-182]	++ (70%>inhibition≧50%)
Cc1ccc(CS(=O)(=O)Nc2ccc3c(c2)CCC(=O)N3CC(F)(F)F)cc1 [A2-152]	++++ (inhibition≧90%)
Cc1ccc(CS(=O)(=O)Nc2ccc3c(c2)CCC(=O)N3CC(F)(F)C(F)(F)F)cc1 [A10-152]	++++ (inhibition≧90%)

Second part, the compound after the results:

ABI1 inhibition	SMILES
++ (70%>inhibition≧50%)	O=C1CCc2c(cc(F)c(NS(=O)(=O)Cc3ccc(F)cc3)c2F)N1CC1CC1 [A29-158]
++++ (inhibition≧90%)	CC(C#N)CN1C(=O)CCc2cc(NS(=O)(=O)Cc3ccc(Cl)cc3)ccc21 (stereo not shown) [A47-165]
+++ (90%>inhibition≧70%)	COCCN1C(=O)CCc2cc(NS(=O)(=O)Cc3cccc(Cl)c3)ccc21 [A38-166]
+ (50%>inhibition≧30%)	Cc1ccc(S(=O)(=O)Nc2ccc3c(c2)C2(CCC2)CC(=O)N3CC2CC2)cc1 [J3-50, 4-Methyl-N-[1′-(cyclopropylmethyl)-2′-oxo-2′,3′-dihydro-1′H-spiro[cyclobutyl-1,4′-quinolin]-6′-yl]phenylsulfonamide]
++++ (inhibition≧90%)	CCc1ccc(CS(=O)(=O)Nc2ccc3c(c2)CCC(=O)N3CC2CC2)cc1 [A19-325, N-[1-(Cyclopropylmethyl)-2-oxo-1,2,3,4-tetrahydroquinolin-6-yl]-1-(4-ethylphenyl)methanesulfonamide]
++++ (inhibition≧90%)	O=C1CCc2cc(NS(=O)(=O)Cc3ccc(F)cc3)ccc2N1CC1CCC1 [A21-158]
++++ (inhibition≧90%)	COC(=O)CCN1C(=O)CCc2cc(NS(=O)(=O)Cc3ccc(C)cc3)ccc21 [A51-152]
++++ (inhibition≧90%)	O=C1CCc2cc(NS(=O)(=O)Cc3ccc([N+](=O)[O-])cc3)ccc2N1CC1CC1 [A19-175]
+++ (90%>inhibition≧70%)	O=C1CCc2cc(NS(=O)(=O)Cc3ccc(Cl)cc3)ccc2N1CC1CCCC1 [A22-165]
++++ (inhibition≧90%)	CCOCCN1C(=O)CCc2cc(NS(=O)(=O)Cc3ccc(C)cc3)ccc21 [A39-152]
+++ (90%>inhibition≧70%)	O=C1CCc2cc(NS(=O)(=O)Cc3ccc(C(F)(F)F)cc3)ccc2N1CC1CCC1 [A21-178]
++++ (inhibition≧90%)	COC(=O)CCN1C(=O)CCc2cc(NS(=O)(=O)Cc3ccccc3Cl)ccc21 [A51-168]
++ (70%>inhibition≧50%)	COC(=O)CCN1C(=O)CCc2cc(NS(=O)(=O)Cc3cccc(C(F)(F)F)c3)ccc21 [A51-179]
++++ (inhibition≧90%)	COCN1C(=O)CCc2cc(NS(=O)(=O)Cc3ccc(Cl)cc3)ccc21 [A49-165]
++++ (inhibition≧90%)	CC(C)(C)c1ccc(CS(=O)(=O)Nc2ccc3c(c2)CCC(=O)N3CC2CC2)cc1 [A19-332]
++++ (inhibition≧90%)	N#Cc1ccc(CS(=O)(=O)Nc2ccc3c(c2)CCC(=O)N3CC2CCC2)cc1 [A21-181, N-[1-(Cyclobutylmethyl)-2-oxo-1,2,3,4-tetrahydroquinolin-6-yl]-1-(4-cyanophenyl)methanesulfonamide]
++++ (inhibition≧90%)	COCCN1C(=O)CCc2cc(NS(=O)(=O)Cc3ccc(C(F)(F)F)cc3)ccc21 [A38-178]
+++ (90%>inhibition≧70%)	N#Cc1ccc(CS(=O)(=O)Nc2ccc3c(c2)CCC(=O)N3CC2CC2(Cl)Cl)cc1 (stereo not shown) [A32-181]
+++ (90%>inhibition≧70%)	COC(=O)CCN1C(=O)CCc2cc(NS(=O)(=O)Cc3ccccc3F)ccc21 [A51-161]
+ (50%>inhibition≧30%)	CCOCCN1C(=O)CCc2cc(NS(=O)(=O)Cc3ccc(F)cc3)ccc21 [A39-158]
+++ (90%>inhibition≧70%)	Cc1ccc(CS(=O)(=O)Nc2ccc3c(c2)CCC(=O)N3CC2CCCC2)cc1 [A22-152]
+++ (90%>inhibition≧70%)	CC1(C)CC(=O)N(CC#N)c2ccc(NS(=O)(=O)Cc3ccc(Cl)cc3)cc21 [B16-165]
+++ (90%>inhibition≧70%)	Cc1cccc(CS(=O)(=O)Nc2ccc3c(c2)CCC(=O)N3CC2CC2)c1 [A19-153, N-[1-(Cyclopropylmethyl)-2-oxo-1,2,3,4-tetrahydroquinolin-6-yl]-1-(3-methylphenyl)methanesulfonamide]
